# Assay results reported in patent US20250026766A1, “Thiazolopyridyl Amide Derivatives as DNA Polymerase Theta Inhibitors” (BeiGene, Ltd., priority 2022, published 2025).
# Molecular target: Pol Theta (1-894) (Homo sapiens (Human), UniProt O75417)
# Assay: Biochemical Pol Theta (1-894) ATPase IC50 assay (ADP-Glo, ssDNA substrate)
# Conditions: ADP-Glo assay with ssDNA substrate, room temperature
# Experimental: Baculovirus Expression of Human POL theta (1-894)
# Human POL Theta (1-894)-His-pFastBac1 baculovirus samples were generated using the Bac-to-Bac baculovirus expression system (Invitrogen) according to the manufacturer's protocol. […] Baculovirus amplification was achieved using infected SF9 cells at 1:2000 virus/cells ratios, and grown for 96 hours at 27° C. post-transfection. The expression scaled up for each protein was carried out in the flask 3 L from CORNING. 4 L of 3×10^6 cells/mL Sf9 cells (Expression System, Invitrogen) grown in SF900TM II SFM insect medium (Expression System) were infected with virus stock at 1:200 virus/cell ratios, and grown for 48 hours at 27° C. post-transfection. The infected cell culture was harvested by centrifugation at 6000 rpm for 15 min 4° C. in a SORVALL LYNX6000 centrifuge. The cell pellets were stored at −80° C.
# The human POL Theta (1-894)-His produced as described above, were purified from Sf9 baculovirus-infected insect cell paste. The cells were lysed using sonication method, and the lysates were clarified by centrifugation.
# Enzymatic reactions of Pol Theta (1-894) were performed using ADP-Glo assay with ssDNA substrate. Pol Theta (1-894) was expressed in baculovirus expression system. The inhibition activities testing for the compound disclosed herein were carried out at room temperature in assay buffer containing 40 mM Tris pH 7.5, 20 mM MgCl2, 1 mM DTT, 0.01% BSA and 0.05% Tween-20. Compounds in DMSO were dispensed into wells of a black 384 well plate (Corning 4514) using D300e digital dispenser (Tecan). The ranges of compounds final concentration were 2.62 nM˜10000 nM. 3 μL 2× enzyme solution containing 12.5 nM enzyme was added to wells. […] After 1 hour reaction, 5 μL ADP-Glo reagent (Promga V9102) was added and incubated for 40 minutes. 10 μL Kinase Detection reagent was added and incubated for 40 minutes. Luminescence was measured on a microplate reader (PHERAstar FSX, BMG labtech). The IC50 values were calculated based on inhibition of enzyme activity in the presence of increasing concentrations of compounds.
# Sequence of Pol Theta (1-894) (O75417 1-894): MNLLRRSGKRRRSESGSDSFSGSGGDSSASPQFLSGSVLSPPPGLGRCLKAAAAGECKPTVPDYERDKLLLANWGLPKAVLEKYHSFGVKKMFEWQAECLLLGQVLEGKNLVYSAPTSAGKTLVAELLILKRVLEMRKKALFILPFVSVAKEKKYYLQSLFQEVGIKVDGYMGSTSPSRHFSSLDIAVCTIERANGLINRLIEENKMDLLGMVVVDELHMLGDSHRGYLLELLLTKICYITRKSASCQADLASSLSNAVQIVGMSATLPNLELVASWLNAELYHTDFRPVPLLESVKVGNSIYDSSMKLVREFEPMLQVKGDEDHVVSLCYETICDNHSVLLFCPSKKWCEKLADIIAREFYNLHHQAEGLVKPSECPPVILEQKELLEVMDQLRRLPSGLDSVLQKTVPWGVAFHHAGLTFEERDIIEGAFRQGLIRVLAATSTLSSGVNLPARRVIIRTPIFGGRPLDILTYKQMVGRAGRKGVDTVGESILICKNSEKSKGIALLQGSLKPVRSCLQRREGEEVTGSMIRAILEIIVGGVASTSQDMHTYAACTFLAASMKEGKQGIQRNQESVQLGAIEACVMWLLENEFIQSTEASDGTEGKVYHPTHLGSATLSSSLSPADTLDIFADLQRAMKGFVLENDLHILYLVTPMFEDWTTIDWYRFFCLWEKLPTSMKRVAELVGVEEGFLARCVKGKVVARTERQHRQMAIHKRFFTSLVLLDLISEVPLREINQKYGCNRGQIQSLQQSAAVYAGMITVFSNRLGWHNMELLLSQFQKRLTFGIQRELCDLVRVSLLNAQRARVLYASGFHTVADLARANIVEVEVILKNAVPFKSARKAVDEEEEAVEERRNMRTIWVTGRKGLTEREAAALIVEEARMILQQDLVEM
row,SMILES,IC50
1,"COc1ccc(C#N)cc1-c1cc(C)ncc1C(=O)Nc1nc2ccc(-c3ccc(N(C)S(C)(=O)=O)c(C)c3)nc2s1 [Example 89, 4-(5-cyano-2-methoxyphenyl)-6-methyl-N-(5-(3-methyl-4-(N-methylmethylsulfonamido)phenyl)thiazolo[5,4-b]pyridin-2-yl)nicotinamide]",23 nM
2,"CCOc1ccc(C#N)cc1-c1cc(C)ncc1C(=O)Nc1nc2ccc(-c3ccc(C#N)cc3)nc2s1 [Example 105, 4-(5-cyano-2-ethoxyphenyl)-N-(5-(4-cyanophenyl)thiazolo[5,4-b]pyridin-2-yl)-6-methylnicotinamide]",16 nM
3,"COc1ccccc1-c1cnncc1C(=O)Nc1nc2ccc(CCc3ccc(Cl)cn3)nc2s1 [Example 162, N-(5-(2-(5-chloropyridin-2-yl)ethyl)thiazolo[5,4-b]pyridin-2-yl)-5-(2-methoxyphenyl)pyridazine-4-carboxamide]",29 nM
4,"COc1ccc(S(C)(=O)=O)cc1-c1cc(C)ncc1C(=O)Nc1nc2ccc(-c3ccc(C#N)cc3)nc2s1 [Example 52, N-(5-(4-cyanophenyl)thiazolo[5,4-b]pyridin-2-yl)-4-(2-methoxy-5-(methylsulfonyl)phenyl)-6-methylnicotinamide]",8.4 nM
5,"COc1ccc(C#N)cc1-c1cc(C)ncc1C(=O)Nc1nc2ccc(-c3ccc(C#N)cc3)nc2s1 [Example 19, 4-(5-cyano-2-methoxyphenyl)-N-(5-(4-cyanophenyl)thiazolo[5,4-b]pyridin-2-yl)-6-methylnicotinamide]",8.5 nM
6,"COc1ccccc1-c1cnncc1C(=O)Nc1nc2ccc(-c3ccc(S(C)(=O)=O)cc3)nc2s1 [Example 81, 5-(2-methoxyphenyl)-N-(5-(4-(methylsulfonyl)phenyl)thiazolo[5,4-b]pyridin-2-yl)pyridazine-4-carboxamide]",7.7 nM
7,"COc1ccc(C#N)cc1-c1cc(C)ncc1C(=O)Nc1nc2ccc(-c3ccc(C(F)(F)F)cc3)nc2s1 [Example 40, 4-(5-cyano-2-methoxyphenyl)-6-methyl-N-(5-(4-(trifluoromethyl)phenyl)thiazolo[5,4-b]pyridin-2-yl)nicotinamide]",87 nM
8,"COc1ccc(C#N)cc1-c1cc(C)ncc1C(=O)Nc1nc2ccc(-c3ccc(C(=O)N4CCOCC4)cc3)nc2s1 [Example 84, 4-(5-cyano-2-methoxyphenyl)-6-methyl-N-(5-(4-(morpholine-4-carbonyl)phenyl)thiazolo[5,4-b]pyridin-2-yl)nicotinamide]",49 nM
9,"COc1c(C#N)cccc1-c1cc(C)ncc1C(=O)Nc1nc2ccc(-c3ccc(C#N)cc3)nc2s1 [Example 82, 4-(3-cyano-2-methoxyphenyl)-N-(5-(4-cyanophenyl)thiazolo[5,4-b]pyridin-2-yl)-6-methylnicotinamide]",272 nM
10,"COc1ccc(C#N)cc1-c1cc(C)ncc1C(=O)Nc1nc2ccc(N3CCOCC3)nc2s1 [Example 60, 4-(5-cyano-2-methoxyphenyl)-6-methyl-N-(5-morpholinothiazolo[5,4-b]pyridin-2-yl)nicotinamide]",361 nM
11,"COc1ccc(C#N)cc1-c1cc(C(F)(F)F)ncc1C(=O)Nc1nc2ccc(-c3ccc(C#N)cc3)nc2s1 [Example 37, 4-(5-cyano-2-methoxyphenyl)-N-(5-(4-cyanophenyl)thiazolo[5,4-b]pyridin-2-yl)-6-(trifluoromethyl)nicotinamide]",151 nM
12,"Cc1cc(-c2ccccc2C#N)c(C(=O)Nc2nc3ccc(-c4ccc(C#N)cc4)nc3s2)cn1 [Example 53, 4-(2-cyanophenyl)-N-(5-(4-cyanophenyl)thiazolo[5,4-b]pyridin-2-yl)-6-methylnicotinamide]",78 nM
13,"COc1ccccc1-c1cc(C(=O)O)ncc1C(=O)Nc1nc2ccc(-c3ccc(NC(C)=O)cc3)nc2s1 [Example 46, 5-((5-(4-acetamidophenyl)thiazolo[5,4-b]pyridin-2-yl)carbamoyl)-4-(2-methoxyphenyl)picolinic acid]",129 nM
14,"COc1ccc(C#N)cc1-c1cc(C)ncc1C(=O)Nc1nc2ccc(-c3ccc(C(=O)N4CCC4)cc3)nc2s1 [Example 145, N-(5-(4-(azetidine-1-carbonyl)phenyl)thiazolo[5,4-b]pyridin-2-yl)-4-(5-cyano-2-methoxyphenyl)-6-methylnicotinamide]",22 nM
15,"COc1ccc(C#N)cc1-c1cc(C)ncc1C(=O)Nc1nc2ccc(-c3ccc(F)cc3)nc2s1 [Example 30, 4-(5-cyano-2-methoxyphenyl)-N-(5-(4-fluorophenyl)thiazolo[5,4-b]pyridin-2-yl)-6-methylnicotinamide]",222 nM
16,"Cc1cc(-c2cccc3c2OCC(=O)N3)c(C(=O)Nc2nc3ccc(-c4ccc(C#N)cc4)nc3s2)cn1 [Example 70, N-(5-(4-cyanophenyl)thiazolo[5,4-b]pyridin-2-yl)-6-methyl-4-(3-oxo-3,4-dihydro-2H-benzo[b][1,4]oxazin-8-yl)nicotinamide]",193 nM
17,"COc1ccccc1-c1cnncc1C(=O)Nc1nc2ccc(-c3ccc(N4COCC4=O)cc3)nc2s1 [Example 149, 5-(2-methoxyphenyl)-N-(5-(4-(4-oxooxazolidin-3-yl)phenyl)thiazolo[5,4-b]pyridin-2-yl)pyridazine-4-carboxamide]",18 nM
18,"COc1ccc(C#N)cc1-c1cc(C)ncc1C(=O)Nc1nc2ccc(-c3ccc(N4CCCC4=O)nc3)nc2s1 [Example 164, 4-(5-cyano-2-methoxyphenyl)-6-methyl-N-(5-(6-(2-oxopyrrolidin-1-yl)pyridin-3-yl)thiazolo[5,4-b]pyridin-2-yl)nicotinamide]",37 nM
19,"CCNC(=O)c1ccc2nc(NC(=O)c3cnncc3-c3ccccc3OC)sc2n1 [Example 94, N-ethyl-2-(5-(2-methoxyphenyl)pyridazine-4-carboxamido)thiazolo[5,4-b]pyridine-5-carboxamide]",29 nM
20,"COCc1ccc(OC)c(-c2cc(C)ncc2C(=O)Nc2nc3ccc(-c4ccc(C#N)cc4)nc3s2)c1 [Example 66, N-(5-(4-cyanophenyl)thiazolo[5,4-b]pyridin-2-yl)-4-(2-methoxy-5-(methoxymethyl)phenyl)-6-methylnicotinamide]",99 nM
21,"COc1ccc([N+](=O)[O-])cc1-c1cc(C)ncc1C(=O)Nc1nc2ccc(-c3ccc(C#N)cc3)nc2s1 [Example 76, N-(5-(4-cyanophenyl)thiazolo[5,4-b]pyridin-2-yl)-4-(2-methoxy-5-nitrophenyl)-6-methylnicotinamide]",5.8 nM
22,"COc1ccc(C#N)cc1-c1cc(Cl)ncc1C(=O)Nc1nc2ccc(-c3ccc(N4CCOCC4)cc3)nc2s1 [Example 58, 6-chloro-4-(5-cyano-2-methoxyphenyl)-N-(5-(4-morpholinophenyl)thiazolo[5,4-b]pyridin-2-yl)nicotinamide]",101 nM
23,"COc1ccc(C#N)cc1-c1cc(C)ncc1C(=O)Nc1nc2ccc(-c3ccc(CN4CCCC4=O)cc3C)nc2s1 [Example 174, 4-(5-cyano-2-methoxyphenyl)-6-methyl-N-(5-(2-methyl-4-((2-oxopyrrolidin-1-yl)methyl)phenyl)thiazolo[5,4-b]pyridin-2-yl)nicotinamide]",11 nM
24,"COc1ccc(C#N)cc1-c1cc(C)ncc1C(=O)Nc1nc2ccc(OCCN3CCOCC3)nc2s1 [Example 65, 4-(5-cyano-2-methoxyphenyl)-6-methyl-N-(5-(2-morpholinoethoxy)thiazolo[5,4-b]pyridin-2-yl)nicotinamide]",224 nM
